Patent US7858606B2, “Triterpenoid derivatives” (Univerzita Palackeho v Olomouci, priority 2001, dated 2010)
Read-outs that look alike come from different tables or passages of the source.

How the values were obtained:
Assay type in all cases: cell-based
[1] = system: Human T-lymphoblastic leukaemia cell line CEM; assay: MTT cytotoxicity screening assay, CEM; conditions: human T-lymphoblastic leukemia, 72 hours, read-out: TCS50
Source text: (§1) One of the parameters used as the basis for colorimetric assays is the metabolic activity of viable cells. For example, a microtiter assay which uses the tetrazolium salt MTT is now widely used to quantitate cell proliferation and cytotoxicity [Hajdúch M, Mihál V, Minarík J, Fáber E, Safárová M, Weigl E, Antálek P.: Cytotechnology, 1996, 19, 243-245]. For instance, this assay is used in drug screening programs and in chemosensitivity testing. Because tetrazolium salts are cleaved only by metabolically active cells, these assays exclusively detect viable cells. In the case of the MTT assay, yellow soluble tetrazolium salt is reduced to a coloured water-insoluble formazan salt. After it is solubilized, the formazan formed can easily and rapidly be quantified in a conventional ELISA plate reader at 570 nm (maximum absorbency). The quantity of reduced formazan corresponds to the number of vital cells in the culture.
(§2) Human T-lymphoblastic leukaemia cell line CEM was used for routine screening of these compounds. […] The cells were maintained in Nunc/Corning 80 cm^2 plastic tissue culture flasks and cultured in cell culture medium (DMEM with 5 g/l glucose, 2 mM glutamine, 100 U/ml penicillin, 100 μg/ml streptomycin, 10% foetal calf serum and sodium bicarbonate). Individual compounds were dissolved in 10% dimethylsulfoxide/saline, pH 8.0.
The cell suspensions that were prepared and diluted according to the particular cell type and the expected target cell density (2.500-30.000 cells per well based on cell growth characteristics) were added by pipette (80 μl) into 96/well microtiter plates. Inoculates were allowed a pre-incubation period of 24 hours at 37° C. and 5% CO2 for stabilisation. Four-fold dilutions of the intended test concentration were added at time zero in 20 μl aliquots to the microtiter plate wells. Usually, test compounds were evaluated at six 4-fold dilutions. In routine testing, the highest well concentration was 250 μM, but it may differ, depending on the agent. All drug concentrations were examined in duplicate. Incubations of cells with the test compounds lasted for 72 hours at 37° C., in 5% CO2 atmosphere and 100% humidity. At the end of the incubation period, the cells were assayed by using the MTT assay. Ten microliters of the MTT stock solution were pipetted into each well and incubated further for 1-4 hours. After this incubation period, formazan was solubilized by the addition of 100 μl/well of 10% SDS in water (pH=5.5) followed by further incubation at 37° C. overnight. The optical density (OD) was measured at 540 nm with the Labsystem iEMS Reader MF(UK). The tumour cell survival (TCS) was calculated using the following equitation: TCS=(ODdrug exposed well/mean ODcontrol wells)×100%. The TCS50 value, the drug concentration lethal to 50% of the tumour cells, was calculated from the obtained dose response curves.
To evaluate the anti-cancer activity of betulinines, their cytotoxic activity against CEM cell line was examined using the screening assay. Potent compounds were further tested against a panel of cell lines of different histogenetic and species origin (Table 2).

[2] = system: SW620 human colon cancer, metastasis; assay: MTT cytotoxicity assay, SW620; conditions: read-out: TCS50
Source text: as §1, §2
(§3) The cell suspensions that were prepared and diluted according to the particular cell type and the expected target cell density (2.500-30.000 cells per well based on cell growth characteristics) were added by pipette (80 μl) into 96/well microtiter plates. […] Usually, test compounds were evaluated at six 4-fold dilutions. […] The optical density (OD) was measured at 540 nm with the Labsystem iEMS Reader MF(UK). The tumour cell survival (TCS) was calculated using the following equitation: TCS=(ODdrug exposed well/mean ODcontrol wells)×100%. The TCS50 value, the drug concentration lethal to 50% of the tumour cells, was calculated from the obtained dose response curves.

MEL-3 human melanoma = assay: MTT cytotoxicity assay, MEL-3; conditions: 72 hours, read-out: TCS50
Source text: as §1, §2, §3

[3] = system: CEM-DNR 1/C2 human T-lymphoblastic leukemia, daunorubicin resistant; assay: MTT cytotoxicity assay, CEM-DNR 1/C2; conditions: 72 hours, read-out: TCS50
Source text: as §1, §2, §3

[4] = system: Caco-2 human colon cancer; assay: MTT cytotoxicity assay, Caco-2; conditions: 72 hours, read-out: TCS50
Source text: as §1, §2, §3

[5] = system: K562-CdA human promyelocytic leukemia, cladrubin resistant; assay: MTT cytotoxicity assay, K562-CdA; conditions: 72 hours, read-out: TCS50
Source text: as §1, §2, §3

[6] = system: HepG2 human hepatocellular carcinoma; assay: MTT cytotoxicity assay, HepG2; conditions: 72 hours, read-out: TCS50
Source text: as §1, §2, §3

HT-29 human colon cancer = assay: MTT cytotoxicity assay, HT-29; conditions: 72 hours, read-out: TCS50
Source text: as §1, §2, §3

[7] = system: K562-ARA-C human promyelocytic leukemia, cytarabin resistant; assay: MTT cytotoxicity assay, K562-ARA-C; conditions: 72 hours, read-out: TCS50
Source text: as §1, §2, §3

[8] = system: B16 mouse melanoma cell line; assay: MTT cytotoxicity assay, B16; conditions: 72 hours, read-out: TCS50
Source text: as §1, §2, §3

human normal lymphocytes = assay: MTT cytotoxicity assay, normal lymphocytes; conditions: human normal lymphocytes (non-malignant), 72 hours, read-out: TCS50
Source text: as §1, §2, §3

[9] = system: CEM-VCR 1/F3 human T-lymphoblastic leukemia, vincristin resistant; assay: MTT cytotoxicity assay, CEM-VCR 1/F3; conditions: 72 hours, read-out: TCS50
Source text: as §1, §2, §3

[10] = system: CEM-VCR 3/D5 human T-lymphoblastic leukemia, vincristin resistant; assay: MTT cytotoxicity assay, CEM-VCR 3/D5; conditions: 72 hours, read-out: TCS50
Source text: as §1, §2, §3

U2OS human osteosarcoma = assay: MTT cytotoxicity assay, U2OS; conditions: p53+/−, Rb +/−, 72 hours, read-out: TCS50
Source text: as §1, §2, §3

[11] = system: CEM-DNR bulk human T-lymphoblastic leukemia, daunorubicin resistant; assay: MTT cytotoxicity assay, CEM-DNR bulk; conditions: 72 hours, read-out: TCS50
Source text: as §1, §2, §3

Saos2 human = assay: MTT cytotoxicity assay, Saos2; conditions: p53−/−, Rb−/−, 72 hours, read-out: TCS50
Source text: as §1, §2, §3

[12] = system: B16F mouse melanoma, metastatic cell line; assay: MTT cytotoxicity assay, B16F; conditions: 72 hours, read-out: TCS50
Source text: as §1, §2, §3

[13] = system: CEM-VCR bulk human T-lymphoblastic leukemia, vincristin resistant; assay: MTT cytotoxicity assay, CEM-VCR bulk; conditions: 72 hours, read-out: TCS50
Source text: as §1, §2, §3

U87MG human glioblastoma = assay: MTT cytotoxicity assay, U87MG; conditions: 72 hours, read-out: TCS50
Source text: as §1, §2, §3

[14] = system: BT549 human breast cancer; assay: MTT cytotoxicity assay, BT549; conditions: 72 hours, read-out: TCS50
Source text: as §1, §2, §3

[15] = system: K562-FLUD human promyelocytic leukemia, fludarabin resistant; assay: MTT cytotoxicity assay, K562-FLUD; conditions: 72 hours, read-out: TCS50
Source text: as §1, §2, §3

[16] = system: NIH3T3 mouse immortalised fibroblasts; assay: MTT cytotoxicity assay, NIH3T3; conditions: NIH3T3, mouse immortalised fibroblasts (non-malignant), 72 hours, read-out: TCS50
Source text: as §1, §2, §3

[17] = system: DU145 human prostate cancer; assay: MTT cytotoxicity assay, DU145; conditions: androgen independent, Rb−/−, 72 hours, read-out: TCS50
Source text: as §1, with “culture. […]” for “culture.”
(§4) The cell suspensions that were prepared and diluted according to the particular cell type and the expected target cell density (2.500-30.000 cells per well based on cell growth characteristics) were added by pipette (80 μl) into 96/well microtiter plates. […] Usually, test compounds were evaluated at six 4-fold dilutions. […] The optical density (OD) was measured at 540 nm with the Labsystem iEMS Reader MF(UK). […]

[18] = system: OVCAR-3 human ovarian cancer; assay: MTT cytotoxicity assay, OVCAR-3; conditions: 72 hours, read-out: TCS50
Source text: as §1, with “culture. […]” for “culture.”
as §4

[19] = system: LNCaP human prostate cancer; assay: MTT cytotoxicity assay, LNCaP; conditions: androgen dependent, 72 hours, read-out: TCS50
Source text: as §1, with “culture. […]” for “culture.”
as §4

[20] = system: A549 human lung adenocarcinoma; assay: MTT cytotoxicity assay, A549; conditions: 72 hours, read-out: TCS50
Source text: as §1, with “culture. […]” for “culture.”
as §4

[21] = system: MDA-MB-238 human breast cancer; assay: MTT cytotoxicity assay, MDA-MB-238; conditions: estrogen independent, p53mut/mut, 72 hours, read-out: TCS50
Source text: as §1, with “culture. […]” for “culture.”
as §4

[22] = system: MCF-7 human breast cancer; assay: MTT cytotoxicity assay, MCF-7; conditions: estrogen dependent, p53+/+, Rb +/+, 72 hours, read-out: TCS50
Source text: as §1, with “culture. […]” for “culture.”
as §4

[23] = system: K562-GEM human promyelocytic leukemia, gemcitabin resistant; assay: MTT cytotoxicity assay, K562-GEM; conditions: 72 hours, read-out: TCS50
Source text: as §1, with “culture. […]” for “culture.”
as §4

| Compound | IC50 [1] [µM] | IC50 (MEL-3 human melanoma) [µM] | IC50 [3] [µM] | IC50 [4] [µM] | IC50 [5] [µM] | IC50 [6] [µM] | IC50 (HT-29 human colon cancer) [µM] | IC50 [7] [µM] | IC50 [8] [µM] | IC50 [9] [µM] | IC50 [10] [µM] | IC50 (U2OS human osteosarcoma) [µM] | IC50 [11] [µM] | IC50 [12] [µM] | IC50 [13] [µM] | IC50 [15] [µM] | IC50 [16] [µM] | IC50 [17] [µM] | IC50 ([2]; 72 hours) [µM] | IC50 [18] [µM] | further results |
| --- | --- | --- | --- | --- | --- | --- | --- | --- | --- | --- | --- | --- | --- | --- | --- | --- | --- | --- | --- | --- | --- |
| 3β-acetoxy-lup-20(29)-en-28-oyl fluoride [II.55] | 19 |  |  |  |  |  |  |  |  |  |  |  |  |  |  |  |  |  |  |  |  |
| C=C(C)[C@@H]1CC[C@]2(C(=O)O)CC[C@]3(C)[C@H](CC[C@@H]4[C@@]5(C)CC[C@H](O)C(C)(C)[C@@H]5CC[C@]43C)[C@@H]12 [Betulinic acid, betulinic acid, reference compound] | 250 | 2.7 | 250 | 20 | 250 | 3.6 | 250 | 250 | 36 | 19 | 24 | 250 | 250 | 4.6 | 69 | 250 | 250 |  |  |  | IC50 ([2]; SW-620, 72 hours): 250 µM; IC50 (human normal lymphocytes; Lymphocyte): 250 µM; IC50 (Saos2 human; SAOS-2, Saos2, human rhabdomyosarcoma): 250 µM; IC50 (U87MG human glioblastoma; U-87 MG): 250 µM; IC50 ([14]; BT-549, p53mut/mut): 250 µM |
| COC(=O)C12CCC3(C)C(CCC4C5(C)CCC(OC(C)=O)C(C)(C)C5CCC43C)C1=C(C(C)C)C(=O)C2=O (stereo not drawn) [II.4, methyl 3β-acetoxy-21,22-dioxolup-18-en-28-oate] | 7.2 | 5.9 | 10 | 8.1 | 5.2 | 5.1 | 5.6 | 6.4 | 35 | 38 | 13 | 4.3 | 5.2 | 68 | 28 | 4.9 | 97 | 2 | 5.9 | 4.7 | IC50 [19]: 3.3 µM; IC50 (human normal lymphocytes): 85 µM; IC50 [20]: 6.7 µM; IC50 (Saos2 human; Saos2, human rhabdomyosarcoma): 7.9 µM; IC50 [21]: 3.3 µM; IC50 (U87MG human glioblastoma): 24 µM; IC50 [22]: 13 µM; IC50 ([14]; p53mut/mut): 15 µM; IC50 [23]: 5 µM |
| C=C(C=O)[C@@H]1CC[C@]2(C(=O)O)CC[C@]3(C)[C@H](CC[C@@H]4[C@@]5(C)CC[C@H](O)C(C)(C)[C@@H]5CC[C@]43C)[C@@H]12 [II.14, 3β-hydroxy-30-oxolup-20(29)-en-28-oic acid] | 3 | 3.7 | 1.6 | 7.7 | 2.1 | 7.1 | 4.7 | 1.6 | 9.3 | 5.9 | 7.8 | 3.9 | 3.3 | 12 | 7 | 1.3 | 16 | 2.8 | 5.9 | 2.6 | IC50 [19]: 3.6 µM; IC50 (human normal lymphocytes): 25 µM; IC50 [20]: 3.3 µM; IC50 (Saos2 human; Saos2, human rhabdomyosarcoma): 4.8 µM; IC50 [21]: 2.4 µM; IC50 (U87MG human glioblastoma): 8.4 µM; IC50 [22]: 4.3 µM; IC50 ([14]; p53mut/mut): 6.3 µM; IC50 [23]: 2.4 µM |
| C=C(C)C1CCC2(C(=O)OC)CCC3(C)C(CCC4C5(C)CCC(OC(=O)OCC(O)CO)C(C)(C)C5CCC43C)C12 (stereo not drawn) [II.45, 17β-methoxycarbonyl-28-norlup-20(29)-en-3β-yl(2,3-dihydroxypropyl)carbonate] | 13 |  |  |  |  |  |  |  |  |  |  |  |  |  |  |  |  |  |  |  |  |
